Assay results as given in patent US5688913A, “CS-1 peptidomimetics, compositions and methods of using the same” (Cytel Corporation, priority 1995, dated 1997).
Where two headings read alike, the source gives them in different places. Numbered stars: 1 amine (or outer) side, 2 acyl side, 3 side chain; on linkers, the order of the positions; unused ones are H or OH. Square brackets hold non-standard residues; d marks the D form. Peptide text beside a SMILES is read from it. * marks the point of attachment. Acetyl(3-pyridyl) = O=C(Cc1cccnc1)*; Pyrazinecarbonyl = O=C(c1cnccn1)*; Brosyl = O=S(=O)(c1ccc(Br)cc1)*; Cha = N[C@@H](CC1CCCCC1)C(=O)O; Phg = N[C@H](C(=O)O)c1ccccc1; Nicotinoyl = O=C(c1cccnc1)*; Morpholide = C1CN(*)CCO1; PhAc = O=C(Cc1ccccc1)*; CO = O=C([*:1])[*:2]; Bz = O=C(c1ccccc1)*; NHPh = c1ccc(N*)cc1

Legend:
[1] = test system: New Zealand white rabbits; test: Treatment of asthmatic rabbits (house dust mite antigen challenge, crossover); format: in vivo, rabbit
Procedure: Six New Zealand white rabbits were immunized with house dust mite antigen from birth through four months of age. Upon immunization, three rabbits received a single nebulizer administration of the inhibitor peptide N-phenylacetyl-Leu-Asp-Phe-morpholinamide in aqueous 50 percent ethanol as diluent in an amount of 100 mg/kg, and the other three received diluent alone. All of the rabbits were challenged with house dust mite antigen about 15-30 minutes after administration of the peptide, with those animals not receiving peptide serving as controls.
Once immunized and challenged, the inflammatory state subsides to a basal level within about three weeks. The three animals used as controls were thereafter used as subjects for receipt of an inhibitor peptide, and the three rabbits that initially received the peptide can serve as controls.
Such a crossover study was done here. Thus, the three initial control rabbits were treated with the above inhibitor peptide in the above diluent at a time more than three weeks after the above study, and the three previous recipients of the peptide were administered the diluent alone. All six were than challenged again.
Initial pulmonary function, measured by dynamic compliance (Cdyn) and lung resistance (RL), and bronchoalveolar lavage (BAL) to obtain an effector cell count, here eosinophils, were conducted prior to administration of the peptide or diluent for both portions of this crossover study. Similar assays were then taken one-half hourly after challenge for six hours (early phase allergic reaction) and at 24 hours after challenge (late stage allergic reaction) for both portions of this study.
These studies were conducted by Dr. W. J. Metzger of East Carolina University, Greenville, N.C. as described by W. J. Metzger in CRC Handbook of Late Phase Reactions, W. Dorsch, ed., Chapter 35, CRC Press, Boca Raton, Fla. (1990) pages 347-362.
The results of this study for the pulmonary function parameters are shown in FIG. 4A and FIG. 4B, in which data for the challenged, inhibitor peptide-treated animals are shown as open circles and data for the challenged, untreated, control animals are shown in blackened circles.

[2] = Retention of potency in PBS containing 10 percent serum; details: PBS at 7.2-7.4 containing 10 percent mouse or human serum
[3] = target: T1, VLA-4 (Homo sapiens, UniProt P05556+P13612); test: cell-based; format: cell-based; design: host or cells: Jurkat (human T lymphoblastic line)
Procedure, shortened: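 51Cr-labelled Jurkat cells (human T lymphoblastic) were preincubated 30 min at about 22 °C with peptide, then allowed to bind 30 min at 37 °C to wells coated with CS-1 peptide or CS-1-OVA. After washing, bound cells were lysed with SDS and counted. IC50 is the peptide concentration halving binding, normalized to plate controls.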

[4] = target: T1, VLA-4; details: cited from earlier work
[5] = 100 mg/kg single nebulizer administration, early phase 2-4 hours, versus challenged controls
[6] = 100 mg/kg single nebulizer administration, late phase 24 hours, versus challenged controls
[7] = normalized IC50 relative to standard peptide of SEQ ID NO:3 (=1), about one-tenth or less of the standard is assigned zero

T1 sequence (P13612 34-1032): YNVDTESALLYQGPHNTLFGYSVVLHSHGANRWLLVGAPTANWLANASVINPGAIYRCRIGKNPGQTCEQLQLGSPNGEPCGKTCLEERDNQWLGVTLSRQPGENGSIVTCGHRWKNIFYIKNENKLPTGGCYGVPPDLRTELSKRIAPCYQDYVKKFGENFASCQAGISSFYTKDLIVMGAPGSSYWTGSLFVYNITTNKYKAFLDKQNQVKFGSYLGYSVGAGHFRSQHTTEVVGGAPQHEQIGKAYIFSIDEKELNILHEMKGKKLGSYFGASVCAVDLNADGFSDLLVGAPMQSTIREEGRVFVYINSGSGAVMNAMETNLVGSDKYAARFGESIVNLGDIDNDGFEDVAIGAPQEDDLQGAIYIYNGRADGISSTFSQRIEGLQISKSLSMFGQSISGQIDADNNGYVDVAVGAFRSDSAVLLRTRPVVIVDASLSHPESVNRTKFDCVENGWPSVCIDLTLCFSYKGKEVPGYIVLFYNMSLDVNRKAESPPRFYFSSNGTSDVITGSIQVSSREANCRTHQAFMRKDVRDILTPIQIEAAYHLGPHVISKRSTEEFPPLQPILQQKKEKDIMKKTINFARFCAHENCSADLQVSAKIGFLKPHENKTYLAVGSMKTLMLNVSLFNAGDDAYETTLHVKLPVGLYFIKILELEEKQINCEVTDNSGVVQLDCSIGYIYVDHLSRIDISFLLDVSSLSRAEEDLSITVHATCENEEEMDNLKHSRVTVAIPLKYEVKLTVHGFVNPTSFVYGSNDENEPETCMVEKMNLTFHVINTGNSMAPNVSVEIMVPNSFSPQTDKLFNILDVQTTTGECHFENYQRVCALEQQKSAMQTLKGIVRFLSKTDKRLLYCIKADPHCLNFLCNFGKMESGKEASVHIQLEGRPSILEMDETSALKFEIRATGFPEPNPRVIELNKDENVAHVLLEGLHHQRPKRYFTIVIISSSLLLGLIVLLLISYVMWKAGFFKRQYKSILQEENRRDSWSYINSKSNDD
T1 sequence (P05556 21-798): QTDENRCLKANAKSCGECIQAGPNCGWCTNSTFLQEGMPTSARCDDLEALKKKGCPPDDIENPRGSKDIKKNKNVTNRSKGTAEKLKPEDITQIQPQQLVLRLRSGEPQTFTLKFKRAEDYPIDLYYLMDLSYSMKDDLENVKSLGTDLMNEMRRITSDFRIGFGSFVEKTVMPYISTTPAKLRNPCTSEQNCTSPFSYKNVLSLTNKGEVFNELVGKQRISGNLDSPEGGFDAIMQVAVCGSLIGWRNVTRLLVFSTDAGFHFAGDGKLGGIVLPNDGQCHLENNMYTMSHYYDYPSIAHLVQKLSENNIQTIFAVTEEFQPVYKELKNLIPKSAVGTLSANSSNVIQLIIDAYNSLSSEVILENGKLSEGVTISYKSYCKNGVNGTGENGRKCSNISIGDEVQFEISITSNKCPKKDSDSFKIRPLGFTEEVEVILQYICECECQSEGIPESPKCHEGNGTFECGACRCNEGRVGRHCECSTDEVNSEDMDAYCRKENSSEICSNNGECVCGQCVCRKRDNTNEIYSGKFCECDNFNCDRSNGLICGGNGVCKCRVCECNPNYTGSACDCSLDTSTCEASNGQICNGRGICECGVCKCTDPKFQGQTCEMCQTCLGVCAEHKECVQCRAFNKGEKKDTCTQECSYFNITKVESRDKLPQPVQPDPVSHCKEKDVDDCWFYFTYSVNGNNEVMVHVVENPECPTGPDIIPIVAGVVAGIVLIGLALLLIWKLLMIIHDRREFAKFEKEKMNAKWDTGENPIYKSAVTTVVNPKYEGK

CC(C)C[C@H](NC(=O)Cc1ccccc1)C(=O)N[C@@H](CC(=O)O)C(=O)N[C@@H](Cc1ccccc1)C(=O)N1CCOCC1 [X L D F Z phenylacetyl morpholinamide, N-phenylacetyl-Leu-Asp-Phe-morpholinamide] (PhAc-Leu-Asp-Phe-Morpholide)
Cdyn, % Reduction, Early phase [1, 5]: 94.4%
RL, % Reduction, Early phase [1, 5]: 80.1%
Cdyn, % Reduction, Late phase [1, 6]: 86.6%
RL, % Reduction, Late phase [1, 6]: 82.6%
Cdyn value over six hours after challenge ([1]; FIG. 4A, 100 mg/kg nebulized): stayed at about the initial value
RL values over six hours after challenge ([1]; FIG. 4B, 100 mg/kg nebulized): ≤ 200% of initial value
loss of potency after 24 hours [2]: no loss of potency
IC50 ([3]; Jurkat cells / solid phase-bound CS-1, read-out: absolute IC50 value): 180 to 300 nM
RELATIVE POTENCY (relative peptide inhibition of VLA-4 binding CS-1) [3, 7]: 844

CC[C@H](C)[C@H](N)C(=O)N[C@@H](CC1CCCCC1)C(=O)N[C@@H](CC(=O)O)C(=O)N[C@@H](Cc1ccccc1)C(=O)N1CCC[C@@H]1C(N)=O (H-I[Cha]DF[dP]-NH2)
RELATIVE POTENCY (relative peptide inhibition of VLA-4 binding CS-1) [3]: 1

CC(C)C[C@@H](C(=O)N[C@@H](CC(=O)O)C(=O)N[C@@H](Cc1ccccc1)C(=O)N1CCC[C@@H]1C(N)=O)n1c(=O)[nH]c2ccccc2c1=O
RELATIVE POTENCY (relative peptide inhibition of VLA-4 binding CS-1) [3]: 56

CC(C)C[C@H](NC(=O)c1cnccn1)C(=O)N[C@@H](CC(=O)O)C(=O)N[C@@H](Cc1ccccc1)C(=O)N1CCC[C@@H]1C(N)=O [X L D F p 2-pyrazinecarbonyl amide] (Pyrazinecarbonyl-LDF[dP]-NH2)
RELATIVE POTENCY (relative peptide inhibition of VLA-4 binding CS-1) [3]: 9

CC(C)C[C@H](NC(=O)Cc1cccnc1)C(=O)N[C@@H](CC(=O)O)C(=O)N[C@@H](Cc1ccccc1)C(=O)N1CCC[C@@H]1C(N)=O [X L D F p pyridine-3-acetyl amide] ({Acetyl(3-pyridyl)}-LDF[dP]-NH2)
RELATIVE POTENCY (relative peptide inhibition of VLA-4 binding CS-1) [3]: 469

CC(C)C[C@H](NC(=O)CCc1ccccc1)C(=O)N[C@@H](CC(=O)O)C(=O)N[C@H](C(=O)N1CCC[C@@H]1C(N)=O)C(C)C [X L D V p phenylpropionyl amide]
RELATIVE POTENCY (relative peptide inhibition of VLA-4 binding CS-1) [3]: 14

CCC(C)C(N)C(=O)N[C@@H](CC(C)C)C(=O)N[C@@H](CC(=O)O)C(=O)N[C@H](C(=O)N1CCC[C@@H]1C(N)=O)C(C)C (single isomer, unassigned) [I L D V p free amine amide]
RELATIVE POTENCY (relative peptide inhibition of VLA-4 binding CS-1) [3]: 1

CC(C)C[C@H](NC(=O)C=Cc1ccccc1)C(=O)N[C@@H](CC(=O)O)C(=O)N[C@H](C(=O)N1CCC[C@@H]1C(N)=O)C(C)C [X L D V p cinnamoyl amide]
RELATIVE POTENCY (relative peptide inhibition of VLA-4 binding CS-1) [3]: 1

CC[C@H](C)[C@H](N)C(=O)N[C@@H](CC1CCCCC1)C(=O)N[C@@H](CC(=O)O)C(=O)N[C@H](C(=O)N1CCC[C@@H]1C(N)=O)C(C)C (H-I[Cha]DV[dP]-NH2)
RELATIVE POTENCY (relative peptide inhibition of VLA-4 binding CS-1) [3]: < 1

CC(C)C[C@H](NC(=O)c1cccnc1)C(=O)N[C@@H](CC(=O)O)C(=O)N[C@@H](Cc1ccccc1)C(=O)N1CCC[C@@H]1C(N)=O [X L D F p pyridine-3-carbonyl amide] (Nicotinoyl-LDF[dP]-NH2)
RELATIVE POTENCY (relative peptide inhibition of VLA-4 binding CS-1) [3]: 201

CC(C)C[C@H](NS(=O)(=O)c1ccc(Br)cc1)C(=O)N[C@@H](CC(=O)O)C(=O)N[C@@H](Cc1ccccc1)C(=O)N1CCC[C@@H]1C(N)=O [X L D F p 4-bromophenylsulfonyl amide] (Brosyl-LDF[dP]-NH2)
RELATIVE POTENCY (relative peptide inhibition of VLA-4 binding CS-1) [3]: < 1

CCCCCCCCCCCCCCCCCC(=O)OC1CCN(C(=O)[C@H](Cc2ccccc2)NC(=O)[C@H](CC(=O)O)NC(=O)[C@H](CC(C)C)NC(=O)Cc2ccccc2)CC1
RELATIVE POTENCY (relative peptide inhibition of VLA-4 binding CS-1) [3, 7]: 1

CC(C)C[C@H](NC(=O)c1cccc2ccccc12)C(=O)N[C@@H](CC(=O)O)C(=O)N[C@H](C(=O)N1CCC[C@@H]1C(N)=O)C(C)C [X L D V p 1-naphthoyl amide]
RELATIVE POTENCY (relative peptide inhibition of VLA-4 binding CS-1) [3]: 1

CC(C)CCC(=O)N[C@@H](CC(C)C)C(=O)N[C@@H](CC(=O)O)C(=O)N[C@H](C(=O)N1CCC[C@@H]1C(N)=O)C(C)C [X L D V p 4-methylvaleroyl amide]
RELATIVE POTENCY (relative peptide inhibition of VLA-4 binding CS-1) [3]: 3

CC(C)C[C@H](NC(=O)c1cccnc1)C(=O)N[C@@H](CC(=O)O)C(=O)N[C@H](C(=O)N1CCC[C@@H]1C(N)=O)C(C)C [X L D V p pyridine-3-carbonyl amide]
RELATIVE POTENCY (relative peptide inhibition of VLA-4 binding CS-1) [3]: 71

CC(C)C[C@H](NC(=O)Cc1ccccc1)C(=O)N[C@@H](CC(=O)O)C(=O)NC1Cc2ccccc2N(CC(C)C)C1=O (stereo partly shown)
RELATIVE POTENCY (relative peptide inhibition of VLA-4 binding CS-1) [3, 7]: 6

CC(C)C[C@H](NC(=O)Cc1ccccc1)C(=O)N[C@@H](CC(=O)O)C(=O)NC1CCCCNC1=O (stereo partly shown)
RELATIVE POTENCY (relative peptide inhibition of VLA-4 binding CS-1) [3, 7]: 27

CC[C@H](C)[C@H](N)C(=O)N[C@@H](CC(C)C)C(=O)N[C@@H](CC(=O)O)C(=O)N[C@H](C(=O)N1CCC[C@H]1C(=O)O)C(C)C [I L D V P free amine free acid, reference compound] (H-ILDVP-OH)
RELATIVE POTENCY (relative peptide inhibition of VLA-4 binding CS-1) [3]: 1

Leu-Asp-Val [LDV]
affinity of VLA-4 lower than for the native CS-1 25-mer [4]: at least two

CC(C)C[C@H](NC(=O)Cc1ccccc1)C(=O)N[C@@H](CC(=O)O)C(=O)NC(c1ccccc1)c1ccccc1 [X L D Z phenylacetyl benzylhydrylamide]
RELATIVE POTENCY (relative peptide inhibition of VLA-4 binding CS-1) [3, 7]: 3

CC(C)C[C@H](NC(=O)Cc1ccccc1)C(=O)N[C@@H](CC(=O)O)C(=O)N[C@H](C(=O)N1CCC[C@@H]1C(N)=O)c1ccccc1 (PhAc-LD[Phg][dP]-NH2)
RELATIVE POTENCY (relative peptide inhibition of VLA-4 binding CS-1) [3, 7]: 61

CC(C)C[C@H](NC(=O)Nc1ccccc1)C(=O)N[C@@H](CC(=O)O)C(=O)N[C@@H](Cc1ccccc1)C(=O)N1CCC[C@@H]1C(N)=O [X L D F p anilinocarbonyl amide] ({NHPh-CO}-LDF[dP]-NH2)
RELATIVE POTENCY (relative peptide inhibition of VLA-4 binding CS-1) [3]: 227

CC(C)C[C@H](NC(=O)Cc1ccccc1)C(=O)N[C@@H](CC(=O)O)C(=O)N[C@@H](Cc1ccc(O)cc1)C(=O)N1CCOCC1 [X L D Y Z phenylacetyl morpholinamide, N-phenylacetyl-Leu-Asp-Tyr-morpholinamide] (PhAc-Leu-Asp-Tyr-Morpholide)
RELATIVE POTENCY (relative peptide inhibition of VLA-4 binding CS-1) [3, 7]: 313

CC(C)C[C@H](NC(=O)CC1CCCCC1)C(=O)N[C@@H](CC(=O)O)C(=O)N[C@H](C(=O)N1CCC[C@@H]1C(N)=O)C(C)C [X L D V p cyclohexaneacetyl amide]
RELATIVE POTENCY (relative peptide inhibition of VLA-4 binding CS-1) [3]: 2

CC(C)C[C@H](NC(=O)c1ccccc1)C(=O)N[C@@H](CC(=O)O)C(=O)N[C@@H](Cc1ccccc1)C(=O)N1CCC[C@@H]1C(N)=O [X L D F p benzoyl amide] (Bz-LDF[dP]-NH2)
RELATIVE POTENCY (relative peptide inhibition of VLA-4 binding CS-1) [3, 7]: 75

CC(C)C[C@H](NC(=O)Cc1ccccc1)C(=O)N[C@@H](CC(=O)O)C(=O)N[C@@H](Cc1ccccc1)C(=O)N1CCNCC1 [X L D F Z phenylacetyl piperazinamide]
RELATIVE POTENCY (relative peptide inhibition of VLA-4 binding CS-1) [3, 7]: 506

CC(C)C[C@H](NC(=O)Cc1ccccc1)C(=O)N[C@@H](CC(=O)O)C(=O)NN(Cc1ccccc1)Cc1ccccc1
RELATIVE POTENCY (relative peptide inhibition of VLA-4 binding CS-1) [3, 7]: 0

CC(C)C[C@H](NC(=O)c1ccccc1)C(=O)N[C@@H](CC(=O)O)C(=O)N[C@H](C(=O)N1CCC[C@H]1C(N)=O)C(C)C [X L D V P benzoyl amide]
RELATIVE POTENCY (relative peptide inhibition of VLA-4 binding CS-1) [3, 7]: 37
RELATIVE POTENCY (relative peptide inhibition of VLA-4 binding CS-1) ([3]; normalized IC50 relative to standard peptide of SEQ ID NO:3 (=1), about one-tenth or less of the standard is assigned zero, listed as X L D V p benzoyl amide): 20
